Experimental data reported in paper PMC12698182, “Bardoxolone methyl blocks the efflux of Zn^2+ by targeting hZnT1 to inhibit the proliferation and metastasis of cervical cancer” (Protein & Cell, 2025).
Residue numbers refer to the chain shown, from its start.

Tests used:
[1] = biological target: T1, hZnT1 (Homo sapiens, UniProt Q9Y6M5, I96A); experiment: biolayer interferometry (BLI); conditions: read-out: binding affinity
T1 construct: gene SLC30A1; homodimer (ECD 271-312, CTD 345-507 visible); tags and borders only in supplement; transport assay in HEK-293F cells
T1 sequence (Q9Y6M5 1-507 I96A): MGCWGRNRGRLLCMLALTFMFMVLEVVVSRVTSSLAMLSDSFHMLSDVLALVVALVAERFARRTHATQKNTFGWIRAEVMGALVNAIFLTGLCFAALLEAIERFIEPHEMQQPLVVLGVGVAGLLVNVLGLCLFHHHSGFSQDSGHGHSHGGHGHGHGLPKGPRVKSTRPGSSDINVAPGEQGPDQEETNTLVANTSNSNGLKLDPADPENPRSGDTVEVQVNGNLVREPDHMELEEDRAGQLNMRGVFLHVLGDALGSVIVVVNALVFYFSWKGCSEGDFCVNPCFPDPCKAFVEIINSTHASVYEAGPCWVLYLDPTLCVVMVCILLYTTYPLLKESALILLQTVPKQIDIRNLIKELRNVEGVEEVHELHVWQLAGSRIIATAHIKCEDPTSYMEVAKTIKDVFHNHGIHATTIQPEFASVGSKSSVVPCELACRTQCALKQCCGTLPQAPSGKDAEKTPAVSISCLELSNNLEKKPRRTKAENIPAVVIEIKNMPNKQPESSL

[2] = biological target: T2, hZnT1 (Homo sapiens, UniProt Q9Y6M5, G258A); experiment: biolayer interferometry (BLI); format: binding
T2 construct: gene SLC30A1; homodimer (ECD 271-312, CTD 345-507 visible); tags and borders only in supplement; transport assay in HEK-293F cells
T2 sequence (Q9Y6M5 1-507 G258A): T1 sequence (Q9Y6M5 1-507 I96A) with A96I, G258A

[3] = biological target: T3, hZnT1 (Homo sapiens, UniProt Q9Y6M5); experiment: FluoZin-3 fluorescence Zn2+ transport assay in HEK-293F cells; format: cell-based
T3 construct: gene SLC30A1; homodimer (ECD 271-312, CTD 345-507 visible); tags and borders only in supplement; transport assay in HEK-293F cells
T3 sequence (Q9Y6M5 1-507): T1 sequence (Q9Y6M5 1-507 I96A) with A96I

[4] = biological target: T3, hZnT1; experiment: biolayer interferometry (BLI); conditions: read-out: binding affinity

Kd [1]: 58.4 µM | IC50 [3]: 18 ± 0.92 µM | Kd [4]: 2.72 µM
Compound: COC(=O)[C@]12CCC(C)(C)C[C@H]1[C@H]1C(=O)C=C3[C@@]4(C)C=C(C#N)C(=O)C(C)(C)[C@@H]4CC[C@@]3(C)[C@]1(C)CC2 [Bardoxolone methyl]
binding affinity [2]: the mutation of G258A directly led to the affinity to be completely undetectable
